Test results taken from patent US9351956B1, “Pharmaceutical composition comprising an enantiomer of lipoamide and derivatives thereof and method of use” (GeroNova Research Inc., priority 2012, dated 2016).

What was measured:
Type in all cases: cell-based
Conditions in all cases: HepG2 cells, 0.2 mM, 8 hours, 5.5 mM glucose
[1] = tested on: peroxisome proliferator-activated receptor (PPAR); test: dual-luciferase reporter array, PPAR
Method: (§1) Nine test compounds were synthesized and characterized. The effects of R, S and RS forms of LA, LAM and LAP on multiple signaling pathways were studied in HepG2 cells at 0.2 mM for 8 hours (5.5 mM glucose) using a dual-luciferase reporter array. The reporter is a mixture of Firefly Luciferase gene construct under control of an inducible transcription factor-responsive promoter and an internal control plasmid constitutively expressing Renilla luciferase gene. Each inducible construct monitors changes in the activity of a select transcription factor serving as a marker for activation or suppression of a specific signaling pathway.

PI3K/AKT = test: dual-luciferase reporter array, FOXO reporter as inverse marker for PI3K/AKT
Method: as §1
This above studies identified previously unknown enantioselective and non-enantioselective pathways differentially affected by LA and amide derivatives. In some cases the racemic compounds activate pathways not activated by either enantiomer. […] The heavy metal response pathway was similarly affected by all nine compounds, which lowered values below control levels. […] The greatest increase in activity of a pathway by all compounds was activation of the Antioxidant Response Element (ARE) but the magnitude varied widely by compound. […] Activation of FOXO transcription factors is repressed by AKT phosphorylation and thus functions as an inverse marker for PI3K/AKT activity, such that low pathway activity increases the magnitude of the FOXO reporter.

[2] = tested on: Antioxidant Response Element (ARE); test: dual-luciferase reporter array, ARE
Method: as §1

[3] = tested on: xenobiotic response element (XRE); test: dual-luciferase reporter array, XRE
Method: as §1

heat shock factor (HSF) = test: dual-luciferase reporter array, HSF
Method: as §1

[4] = tested on: retinoic acid response element (RAR); test: dual-luciferase reporter array, RAR
Method: as §1

C/EBP = test: dual-luciferase reporter array, C/EBP
Method: as §1

[5] = tested on: progesterone receptor (PR); test: dual-luciferase reporter array, PR
Method: as §1

| SMILES | PI3K/AKT activation (inverse of FOXO reporter response) (PI3K/AKT) | XRE induction [3] | ARE response (activation) [2] | further results |
| --- | --- | --- | --- | --- |
| O=C(O)CCCC[C@H]1CCSS1 [SLA, S-(−)-lipoic acid] | minimal | – | – | PPAR activity [1]: lowered |
| NC(=O)CCCC[C@H]1CCSS1 [SLAM, S-(−)-lipoamide] | – | induced | activated | HSF activation (heat shock factor (HSF)): activated |
| O=C(O)CCCC[C@@H]1CCSS1 [RLA, R-(+)-lipoic acid] | strongly activates | – | – | RAR activation [4]: selectively activates; C/EBP activation (C/EBP): selectively activates |
| CN(C)CCNC(=O)CCCC[C@H]1CCSS1 [SLAP] | – | induced | – | – |
| NC(=O)CCCC[C@@H]1CCSS1 [RLAM, R-(+)-lipoamide] | – | – | strongest ARE response | PR activation [5]: selectively activates |
